Measured values reported in ChEMBL document CHEMBL1151484, “Preparation and anti-HIV activity of N-3 amino substituted thymidine nucleoside analogs” (Bioorg Med Chem Lett, 1992).

Columns and labels:
CCRF-CEM [1] = test: In vitro anti -HIV activity of compound determined against the LAV Bru infected CEM cells; Highly cytotoxic at low dose; assay type: functional, Homo sapiens
CCRF-CEM [2] = test: In vitro anti -HIV activity of compound determined against the LAV Bru strain infected CEM cells at dose up to 100 uM; assay type: functional, Homo sapiens
[3] = Tested for bone marrow cell toxicity expressed as burst forming unit for erythrocyte at a compound concentration of 36/30 mM in experiment-1; assay type: cell-based; settings: human
[4] = Tested for bone marrow cell toxicity expressed as burst forming unit for erythrocyte at a compound concentration of 36/30 mM in experiment-2; assay type: cell-based; settings: human
[5] = Tested for bone marrow cell toxicity expressed as burst forming unit for erythrocyte at a compound concentration of 360 mM in experiment-1; assay type: cell-based; settings: human
[6] = Tested for bone marrow cell toxicity expressed as burst forming unit for erythrocyte at a compound concentration of 0.036 mM in experiment-1; assay type: cell-based; settings: human, 36 µM
[7] = Tested for bone marrow cell toxicity expressed as burst forming unit for erythrocyte at a compound concentration of 0.036 mM in experiment-2; assay type: cell-based; settings: human, 36 µM
[8] = Tested for bone marrow cell toxicity expressed as burst forming unit for erythrocyte at a compound concentration of 0.36 mM in experiment-1; assay type: cell-based; settings: human, 360 µM
[9] = Tested for bone marrow cell toxicity expressed as burst forming unit for erythrocyte at a compound concentration of 100 mM in experiment-2; assay type: cell-based; settings: human
[10] = Tested for bone marrow cell toxicity expressed as burst forming unit for erythrocyte at a compound concentration of 10 mM in experiment-2; assay type: cell-based; settings: human
[11] = Tested for bone marrow cell toxicity expressed as colony forming unit of granulocyte -macrophage at a compound concentration of 0.036 mM in experiment-1; assay type: cell-based; settings: human, 36 µM
[12] = Tested for bone marrow cell toxicity expressed as colony forming unit of granulocyte -macrophage at a compound concentration of 0.36 mM in experiment-1; assay type: cell-based; settings: human, 360 µM
[13] = Tested for bone marrow cell toxicity expressed as burst forming unit for erythrocyte at a compound concentration of 1 mM in experiment-2; assay type: cell-based; settings: human, 1000 µM
[14] = Tested for bone marrow cell toxicity expressed as burst forming unit for erythrocyte at a compound concentration of 3.6/3 mM in experiment-1; assay type: cell-based; settings: human
[15] = Tested for bone marrow cell toxicity expressed as burst forming unit for erythrocyte at a compound concentration of 3.6/3 mM in experiment-2; assay type: cell-based; settings: human
[16] = Tested for bone marrow cell toxicity expressed as colony forming unit of granulocyte -macrophage at a compound concentration of 100 mM in experiment-2; assay type: cell-based; settings: human
[17] = Tested for bone marrow cell toxicity expressed as colony forming unit of granulocyte -macrophage at a compound concentration of 10 mM in experiment-2; assay type: cell-based; settings: human
[18] = Tested for bone marrow cell toxicity expressed as colony forming unit of granulocyte -macrophage at a compound concentration of 1 mM in experiment-2; assay type: cell-based; settings: human, 1000 µM
[19] = Tested for bone marrow cell toxicity expressed as colony forming unit of granulocyte -macrophage at a compound concentration of 3.6/30 mM in experiment-1; assay type: cell-based; settings: human
[20] = Tested for bone marrow cell toxicity expressed as colony forming unit of granulocyte -macrophage at a compound concentration of 3.6/30 mM in experiment-2; assay type: cell-based; settings: human
[21] = Tested for bone marrow cell toxicity expressed as colony forming unit of granulocyte -macrophage at a compound concentration of 300 mM in experiment-1; assay type: cell-based; settings: human
[22] = Tested for bone marrow cell toxicity expressed as colony forming unit of granulocyte -macrophage at a compound concentration of 36/30 mM in experiment-1; assay type: cell-based; settings: human
[23] = Tested for bone marrow cell toxicity expressed as colony forming unit of granulocyte -macrophage at a compound concentration of 36/30 mM in experiment-2; assay type: cell-based; settings: human
[24] = Tested for bone marrow cell toxicity expressed as colony forming unit of granulocyte -macrophage at a compound concentration of 360 mM in experiment-1; assay type: cell-based; settings: human
Mus musculus [25] = test: Effect of compound on Friend Complex Murine Leukemia Virus (F-MuLV) induced splenomegaly, expressed as percent inhibition at a dose of 12 mg/kg; assay type: functional
Mus musculus [26] = test: Effect of compound on Friend Complex Murine Leukemia Virus (F-MuLV) induced splenomegaly, expressed as percent inhibition at a dose of 40 mg/kg; assay type: functional
Mus musculus [27] = test: Effect of compound on Friend Complex Murine Leukemia Virus (F-MuLV) induced splenomegaly, expressed as percent inhibition at a dose of 4 mg/kg; assay type: functional
Mus musculus [28] = test: Effect of compound on Friend Complex Murine Leukemia Virus (F-MuLV) induced splenomegaly, spleen weights at a dose of 12 mg/kg; assay type: functional
Mus musculus [29] = test: Effect of compound on Friend Complex Murine Leukemia Virus (F-MuLV) induced splenomegaly, spleen weights at a dose of 40 mg/kg; assay type: functional
Mus musculus [30] = test: Effect of compound on Friend Complex Murine Leukemia Virus (F-MuLV) induced splenomegaly, spleen weights at a dose of 4 mg/kg; assay type: functional
[31] = Tested for bone marrow cell toxicity expressed as burst forming unit for erythrocyte at a compound concentration of 30 mM in experiment-1; assay type: cell-based; settings: human
[32] = Tested for bone marrow cell toxicity expressed as burst forming unit for erythrocyte at a compound concentration of 30 mM in experiment-2; assay type: cell-based; settings: human
[33] = Tested for bone marrow cell toxicity expressed as burst forming unit for erythrocyte at a compound concentration of 3 mM in experiment-1; assay type: cell-based; settings: human, 3000 µM
[34] = Tested for bone marrow cell toxicity expressed as burst forming unit for erythrocyte at a compound concentration of 3 mM in experiment-2; assay type: cell-based; settings: human, 3000 µM
[35] = Tested for bone marrow cell toxicity expressed as burst forming unit for erythrocyte at a compound concentration of 0.3 mM in experiment-2; assay type: cell-based; settings: human, 300 µM
[36] = Tested for bone marrow cell toxicity expressed as burst forming unit for erythrocyte at a compound concentration of 100 mM in experiment-1; assay type: cell-based; settings: human
[37] = Tested for bone marrow cell toxicity expressed as burst forming unit for erythrocyte at a compound concentration of 10 mM in experiment-1; assay type: cell-based; settings: human
[38] = Tested for bone marrow cell toxicity expressed as burst forming unit for erythrocyte at a compound concentration of 1 mM in experiment-1; assay type: cell-based; settings: human, 1000 µM
[39] = Tested for bone marrow cell toxicity expressed as colony forming unit of granulocyte -macrophage at a compound concentration of 0.3 mM in experiment-2; assay type: cell-based; settings: human, 300 µM
[40] = Tested for bone marrow cell toxicity expressed as colony forming unit of granulocyte -macrophage at a compound concentration of 100 mM in experiment-1; assay type: cell-based; settings: human
[41] = Tested for bone marrow cell toxicity expressed as colony forming unit of granulocyte -macrophage at a compound concentration of 10 mM in experiment-1; assay type: cell-based; settings: human
[42] = Tested for bone marrow cell toxicity expressed as colony forming unit of granulocyte -macrophage at a compound concentration of 1 mM in experiment-1; assay type: cell-based; settings: human, 1000 µM
[43] = Tested for bone marrow cell toxicity expressed as colony forming unit of granulocyte -macrophage at a compound concentration of 30 mM in experiment-2; assay type: cell-based; settings: human
[44] = Tested for bone marrow cell toxicity expressed as colony forming unit of granulocyte -macrophage at a compound concentration of 3 mM in experiment-1; assay type: cell-based; settings: human, 3000 µM
[45] = Tested for bone marrow cell toxicity expressed as colony forming unit of granulocyte -macrophage at a compound concentration of 3 mM in experiment-2; assay type: cell-based; settings: human, 3000 µM

SMILES: Cc1cn(C2CC(F)C(CO)O2)c(=O)n(N)c1=O (stereo unspecified)
- Activity (CCRF-CEM [1]): 0.1 µM

SMILES: Cc1cn(C2C=CC(CO)O2)c(=O)n(N)c1=O (stereo unspecified)
- Activity (CCRF-CEM [2]): 40 µM

SMILES: Cc1cn(C2CC(N=[N+]=[N-])C(CO)O2)c(=O)n(N)c1=O (stereo unspecified)
- BFU [3]: 98
- BFU [4]: 198
- BFU [5]: 111
- BFU [6]: 94
- BFU [7]: 10
- BFU [8]: 142
- BFU [9]: 158
- BFU [10]: 170
- CFU [11]: 48.3
- CFU [12]: 31.3
- BFU [13]: 249
- BFU [14]: 140
- BFU [15]: 218
- CFU [16]: 9.3
- CFU [17]: 10
- CFU [18]: 12.3
- CFU [19]: 31.3
- CFU [20]: 14
- CFU [21]: 0.3
- CFU [22]: 28.3
- CFU [23]: 11.3
- CFU [24]: 0.7
- inhibition in vivo at 12 mg/kg (Mus musculus [25]): 46%
- inhibition in vivo at 40 mg/kg (Mus musculus [26]): 55%
- inhibition in vivo at 4 mg/kg (Mus musculus [27]): 28%
- Spleen weight (Mus musculus [28]): 715 mg
- Spleen weight (Mus musculus [29]): 607 mg
- Spleen weight (Mus musculus [30]): 907 mg

SMILES: Cc1cn([C@H]2C[C@H](F)[C@@H](CO)O2)c(=O)[nH]c1=O [ALOVUDINE]
- Activity (CCRF-CEM [1]): 0.1 µM

SMILES: Cc1cn([C@H]2C[C@H](N=[N+]=[N-])[C@@H](CO)O2)c(=O)[nH]c1=O [ZIDOVUDINE]
- BFU [31]: 46
- BFU [32]: 59
- BFU [33]: 88
- BFU [34]: 79
- BFU [35]: 143
- BFU [36]: 4
- BFU [37]: 76
- BFU [10]: 79
- BFU [38]: 120
- BFU [13]: 132
- CFU [39]: 10.7
- CFU [40]: 1
- CFU [41]: 4.3
- CFU [17]: 1
- CFU [42]: 33.4
- CFU [18]: 4.7
- CFU [43]: 0
- CFU [44]: 18.7
- CFU [45]: 4.5
- inhibition in vivo at 12 mg/kg (Mus musculus [25]): 50%
- inhibition in vivo at 40 mg/kg (Mus musculus [26]): 78%
- inhibition in vivo at 4 mg/kg (Mus musculus [27]): 46%
- Spleen weight (Mus musculus [28]): 669 mg
- Spleen weight (Mus musculus [29]): 357 mg
- Spleen weight (Mus musculus [30]): 706 mg
